pIC50: −log10 of the molar value. Like-named read-outs stand apart in the source and are kept apart here.

Assay [1] deals with CDK7/Cyclin H/MAT1 complex (Homo sapiens, UniProt P50613). Briefly: CDK7 inhibition assay (Caliper/LabChip EZ Reader kinase assay). Format: biochemical. The following applies: Table 1, CDK7/Cyclin H/MAT1 6 nM, ATP 2 mM, 35 min at 27° C. The method in brief: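 A Perkin Elmer Caliper/LabChip EZ Reader (Waltham, MA) platform served as the basis for this CDK7 kinase inhibition assay. The work was carried out by Biortus Biosciences, located in Jiangyin, Jiangsu Province, P.R. of China. Each CDK studied had its own kinase assay, and compounds were evaluated for their ability to block CDK7 activity.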
Chain of CDK7/Cyclin H/MAT1 complex (P50613 whole entry, species assumed): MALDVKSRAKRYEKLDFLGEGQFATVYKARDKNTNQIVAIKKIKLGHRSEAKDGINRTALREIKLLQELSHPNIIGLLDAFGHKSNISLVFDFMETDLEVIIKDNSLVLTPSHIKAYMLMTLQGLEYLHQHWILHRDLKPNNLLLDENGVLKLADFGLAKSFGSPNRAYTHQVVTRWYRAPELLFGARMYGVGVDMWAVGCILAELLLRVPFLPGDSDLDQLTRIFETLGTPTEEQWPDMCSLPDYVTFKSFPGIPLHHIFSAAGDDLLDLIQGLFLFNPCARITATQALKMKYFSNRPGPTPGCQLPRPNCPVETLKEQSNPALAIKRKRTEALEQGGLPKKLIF
Chain of CDK7/Cyclin H/MAT1 complex (P51946 whole entry partner, species assumed): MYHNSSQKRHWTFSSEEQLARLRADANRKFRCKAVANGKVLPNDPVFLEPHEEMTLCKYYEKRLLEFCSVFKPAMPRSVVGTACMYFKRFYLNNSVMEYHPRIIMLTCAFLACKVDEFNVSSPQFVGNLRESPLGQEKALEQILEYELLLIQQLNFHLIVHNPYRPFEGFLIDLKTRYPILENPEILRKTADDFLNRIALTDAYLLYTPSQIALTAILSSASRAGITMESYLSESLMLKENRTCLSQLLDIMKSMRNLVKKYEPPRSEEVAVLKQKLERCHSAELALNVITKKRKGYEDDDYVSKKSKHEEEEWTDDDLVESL
Chain of CDK7/Cyclin H/MAT1 complex (P51948 whole entry partner, species assumed): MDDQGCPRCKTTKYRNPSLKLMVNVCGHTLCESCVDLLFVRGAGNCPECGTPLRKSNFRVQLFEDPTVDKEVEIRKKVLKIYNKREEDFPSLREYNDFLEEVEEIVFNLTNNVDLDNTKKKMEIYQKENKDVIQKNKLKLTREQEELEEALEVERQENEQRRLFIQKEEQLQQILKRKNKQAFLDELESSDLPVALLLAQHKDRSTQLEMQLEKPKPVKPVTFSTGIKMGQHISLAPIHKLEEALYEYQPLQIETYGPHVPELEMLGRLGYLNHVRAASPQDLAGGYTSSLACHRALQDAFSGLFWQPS

Assay [2] deals with CDK9/Cyclin T1 complex (Homo sapiens, UniProt P50750). Briefly: CDK9 inhibition assay (Caliper/LabChip EZ Reader kinase assay). Format: biochemical. The conditions noted are these: Table 1, CDK9/Cyclin T1 8 nM, ATP 2 mM, 15 min at 27° C. The gist of the method:
(§1)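 Caliper/LabChip EZ Reader mobility-shift assays. CDK9/Cyclin T1 at 8 nM with 2 μM 5-FAM-CDK9tide peptide and 10 mM MgCl2; CDK2/Cyclin E1 at 0.5 nM with 2 μM 5-FAM-CDK7tide and 2 mM MgCl2.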

Assay [3] concerns the target CDK2/Cyclin E1 complex (Homo sapiens, UniProt P24941). Briefly: CDK2 inhibition assay (Caliper/LabChip EZ Reader kinase assay). The assay is classed as biochemical. The conditions noted are these: Table 1, CDK2/Cyclin E1 0.5 nM, ATP 2 mM, 35 min at 27° C. The method in brief: as §1
Assay [4] has as its system A673 cells. Put plainly: Inhibition of proliferation of A673 cells (CyQUANT, 72 hour). The assay is classed as cell-based, human. The following applies: A673 cells, 72 hour, CyQUANT, read-out: Inhibition of Proliferation of A673 Cells (calculated IC50). The gist of the method:
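Human Ewing's sarcoma A673 cells in DMEM with 10% FBS and 1 mM sodium pyruvate, 37° C, 5% CO2, treated 72 h with compound from 4 μM to […] (0.5 log dilutions). Antiproliferative effect read by CyQUANT assay.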

In assay [5] the test system is HCC70 cells. Briefly: Inhibition of proliferation of HCC70 cells (CyQUANT Direct Cell Proliferation Assay, 72 hour). Format: cell-based, human. The gist of the method:
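Human triple-negative breast cancer HCC70 cells cultured at 37° C, 5% CO2, with compound for 72 hour. Anti-proliferative effect read by CyQUANT Direct Cell Proliferation Assay. Dinaciclib, a CDK inhibitor analog and triptolide served as positive controls.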

Assay [6] concerns the target T1, CDK12 (aa686-1082)/Cyclin K complex (Homo sapiens, UniProt Q9NYV4).
T1 construct: CDK12 (aa686-1082)/Cyclin K complex
Briefly: CDK12 inhibition assay (Caliper/LabChip EZ Reader kinase assay). The assay is classed as biochemical. The following applies: Table 1, CDK12 (aa686-1082)/Cyclin K 50 nM, ATP 2 mM, 3 hr at 27° C.

The mark [7] stands for this setting: Homo sapiens, HCC70, 72 h, read-out: Inhibition of Proliferation of HCC70 Cells (calculated IC50).

T1 sequence (Q9NYV4 686-1082, species assumed): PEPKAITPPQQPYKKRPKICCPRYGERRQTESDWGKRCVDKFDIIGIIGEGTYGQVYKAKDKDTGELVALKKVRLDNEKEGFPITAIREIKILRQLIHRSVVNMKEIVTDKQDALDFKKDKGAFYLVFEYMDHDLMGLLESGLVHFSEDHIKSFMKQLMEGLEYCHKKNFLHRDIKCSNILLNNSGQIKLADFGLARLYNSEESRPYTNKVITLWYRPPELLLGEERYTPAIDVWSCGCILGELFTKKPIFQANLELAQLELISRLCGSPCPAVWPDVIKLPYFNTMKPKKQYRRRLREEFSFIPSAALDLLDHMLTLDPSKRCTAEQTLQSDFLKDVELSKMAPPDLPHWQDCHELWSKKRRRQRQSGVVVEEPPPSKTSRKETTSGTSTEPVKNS
T1 sequence (O75909 whole entry partner, species assumed, the tested form may be a part): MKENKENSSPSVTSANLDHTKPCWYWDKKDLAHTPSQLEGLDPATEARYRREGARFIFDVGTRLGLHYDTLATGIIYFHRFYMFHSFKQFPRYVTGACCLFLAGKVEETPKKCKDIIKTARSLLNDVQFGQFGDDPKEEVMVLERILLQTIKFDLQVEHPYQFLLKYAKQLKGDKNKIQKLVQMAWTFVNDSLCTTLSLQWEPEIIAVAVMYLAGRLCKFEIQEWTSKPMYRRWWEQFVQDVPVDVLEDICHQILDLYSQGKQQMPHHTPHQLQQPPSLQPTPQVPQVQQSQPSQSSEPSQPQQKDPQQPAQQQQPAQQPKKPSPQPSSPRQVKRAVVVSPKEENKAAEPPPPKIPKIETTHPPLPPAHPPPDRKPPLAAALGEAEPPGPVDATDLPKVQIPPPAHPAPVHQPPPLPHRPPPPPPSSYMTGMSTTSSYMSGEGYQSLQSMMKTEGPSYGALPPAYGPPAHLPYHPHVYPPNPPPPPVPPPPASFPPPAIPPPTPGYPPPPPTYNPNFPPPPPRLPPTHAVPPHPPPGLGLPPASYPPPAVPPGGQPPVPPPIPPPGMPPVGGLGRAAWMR
Chain of CDK9/Cyclin T1 complex (P50750 whole entry, species assumed): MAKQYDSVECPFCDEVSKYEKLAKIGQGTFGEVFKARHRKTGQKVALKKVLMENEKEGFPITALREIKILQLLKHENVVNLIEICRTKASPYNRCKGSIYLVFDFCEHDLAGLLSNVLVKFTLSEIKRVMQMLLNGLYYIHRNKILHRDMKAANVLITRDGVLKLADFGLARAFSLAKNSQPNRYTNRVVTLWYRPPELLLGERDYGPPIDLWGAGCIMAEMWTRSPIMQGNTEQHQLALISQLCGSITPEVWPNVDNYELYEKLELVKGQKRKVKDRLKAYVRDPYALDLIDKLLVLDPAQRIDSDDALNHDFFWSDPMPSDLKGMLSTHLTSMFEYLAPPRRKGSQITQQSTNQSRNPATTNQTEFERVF
Chain of CDK9/Cyclin T1 complex (O60563 whole entry partner, species assumed): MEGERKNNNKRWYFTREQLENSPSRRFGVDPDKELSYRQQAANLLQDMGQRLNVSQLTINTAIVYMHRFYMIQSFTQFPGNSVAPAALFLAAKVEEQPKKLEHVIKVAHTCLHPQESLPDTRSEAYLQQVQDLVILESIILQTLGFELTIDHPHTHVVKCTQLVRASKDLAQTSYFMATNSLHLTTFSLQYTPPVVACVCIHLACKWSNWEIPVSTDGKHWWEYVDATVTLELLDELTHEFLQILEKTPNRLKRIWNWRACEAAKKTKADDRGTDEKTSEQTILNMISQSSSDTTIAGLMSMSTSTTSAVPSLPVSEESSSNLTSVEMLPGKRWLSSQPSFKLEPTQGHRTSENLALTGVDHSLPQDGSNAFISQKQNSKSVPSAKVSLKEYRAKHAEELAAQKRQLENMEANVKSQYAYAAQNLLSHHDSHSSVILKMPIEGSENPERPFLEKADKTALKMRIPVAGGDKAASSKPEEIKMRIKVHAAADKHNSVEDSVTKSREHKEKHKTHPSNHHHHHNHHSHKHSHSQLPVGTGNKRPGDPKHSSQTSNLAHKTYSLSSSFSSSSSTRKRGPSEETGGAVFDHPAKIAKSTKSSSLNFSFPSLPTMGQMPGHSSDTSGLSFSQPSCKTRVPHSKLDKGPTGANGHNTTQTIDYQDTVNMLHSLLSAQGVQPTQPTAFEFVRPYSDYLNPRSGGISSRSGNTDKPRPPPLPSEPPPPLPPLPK

`CCc1cnc(N[C@H]2CCCNC2)nc1-c1n[nH]c2nc(C#N)ccc12` [Compound 277, (S)-3-(5-ethyl-2-(piperidin-3-ylamino)pyrimidin-4-yl)-1H-pyrazolo[3,4-b]pyridine-6-carbonitrile]: the pIC50 in assay [1] was above 7.70; in assay [2], 5.30 to 6.70; in assay [3], 5.30 to 6.70; in assay [4] (Homo sapiens, A673, 72 h), 6.70 to 7.70; in assay [5] (setting [7]), 6.00 to 7.00; in assay [6], 5.30 to 6.70.
Regarding `O=C(c1ccc2c(-c3nc(N[C@H]4CCCNC4)ncc3C(F)(F)F)c[nH]c2c1)N1CCCC1` [Compound 278, [3-[2-[[(3S)-3-piperidyl]amino]-5-(trifluoromethyl)pyrimidin-4-yl]-1H-indol-6-yl]-Pyrrolidin-1-yl-methanone], the pIC50 is 6.70 to 7.70 in assay [1]; below 5.30 in assay [2]; 5.30 to 6.70 in assay [3]; 6.70 to 7.70 in assay [4] (Homo sapiens, A673, 72 h); 6.00 to 7.00 in assay [5] (setting [7]); 5.30 to 6.70 in assay [6].
`Cn1cc(-c2nc(NC3CCCNC3)ncc2C(F)(F)F)c2cccc(C#N)c21` (centres unmarked) [Compound 279]: the pIC50 was 6.70 to 7.70 in assay [1]; below 5.30 in assay [2]; below 5.30 in assay [3]; 5.30 to 6.70 in assay [4] (Homo sapiens, A673, 72 h); 5.30 to 6.00 in assay [5] (setting [7]); below 5.30 in assay [6].
As to `COCn1cc(-c2nc(NC3CCCNC3)ncc2C(F)(F)F)c2ccc(C#N)nc21` (centres unmarked) [Compound 283], the pIC50 was 5.30 to 6.70 in assay [1]; below 5.30 in assay [2]; below 5.30 in assay [3]; 5.30 to 6.70 in assay [4] (Homo sapiens, A673, 72 h); 5.30 to 6.00 in assay [5] (setting [7]); below 5.30 in assay [6].
With `CCN1CCC[C@H](Nc2ncc(C(F)(F)F)c(-c3c[nH]c4cc(C#N)ccc34)n2)C1` [Compound 284], the pIC50 was above 7.70 in assay [1]; 5.30 to 6.70 in assay [2]; 5.30 to 6.70 in assay [3]; 6.70 to 7.70 in assay [4] (Homo sapiens, A673, 72 h); 6.00 to 7.00 in assay [5] (setting [7]); 5.30 to 6.70 in assay [6].
In the case of `C[C@H]1CCNC[C@H]1Nc1ncc(C(F)(F)F)c(-c2c[nH]c3ccccc23)n1` [Compound 285], the pIC50 in assay [1] was 5.30 to 6.70; in assay [2], below 5.30; in assay [3], below 5.30; in assay [4] (Homo sapiens, A673, 72 h) it was above 7.70; in assay [5] (setting [7]), above 7.00; in assay [6], below 5.30.
For `CCS(=O)(=O)c1cccc2c(-c3nc(N[C@H]4CCCNC4)ncc3C(F)(F)F)c[nH]c12` [Compound 286], the pIC50 in assay [1] was above 7.70; in assay [2] it was 5.30 to 6.70; in assay [3], 5.30 to 6.70; in assay [4] (Homo sapiens, A673, 72 h), 5.30 to 6.70; in assay [5] (setting [7]), 5.30 to 6.00; in assay [6] it was 5.30 to 6.70.
For `CCc1cnc(N[C@H]2CCCNC2)nc1-c1c[nH]c2nc(C#N)ccc12` [Compound 287, (S)-3-(5-ethyl-2-(piperidin-3-ylamino)pyrimidin-4-yl)-1H-pyrrolo[2,3-b]pyridine-6-carbonitrile], the pIC50 in assay [1] was above 7.70; in assay [2] it was below 5.30; in assay [3], below 5.30; in assay [4] (Homo sapiens, A673, 72 h), 6.70 to 7.70; in assay [5] (setting [7]), 6.00 to 7.00; in assay [6], below 5.30.
Take `FC(F)n1ccc(-c2ccc3c(-c4nc(N[C@H]5CCCNC5)ncc4C(F)(F)F)c[nH]c3c2)n1` [Compound 289, 4-[6-[1-(difluoromethyl)pyrazol-3-yl]-1H-indol-3-yl]-N-[(3S)-3-piperidyl]-5-(trifluoromethyl) pyrimidin-2-amine]: the pIC50 in assay [1] was 6.70 to 7.70; in assay [2] it was 5.30 to 6.70; in assay [3], 5.30 to 6.70; in assay [4] (Homo sapiens, A673, 72 h), 6.70 to 7.70; in assay [5] (setting [7]), 6.00 to 7.00; in assay [6] it was 5.30 to 6.70.
As to `FC(F)n1cc(-c2ccc3c(-c4nc(N[C@H]5CCCNC5)ncc4C(F)(F)F)c[nH]c3c2)cn1` [Compound 290, 4-[6-[1-(difluoromethyl)pyrazol-4-yl]-1H-indol-3-yl]-N-[(3S)-3-piperidyl]-5-(trifluoromethyl) pyrimidin-2-amine], the pIC50 in assay [1] was 6.70 to 7.70; in assay [2], 5.30 to 6.70; in assay [3] it was 5.30 to 6.70; in assay [4] (Homo sapiens, A673, 72 h), 6.70 to 7.70; in assay [5] (setting [7]) it was 6.00 to 7.00; in assay [6], 5.30 to 6.70.
`FC(F)(F)c1cnc(N[C@H]2CCCNC2)nc1-c1c[nH]c2cc(-c3ccn[nH]3)ccc12` [Compound 291, N-[(3S)-3-piperidyl]-4-[6-(1H-pyrazol-3-yl)-1H-indol-3-yl]-5-(trifluoromethyl) pyrimidin-2-amine]: the pIC50 in assay [1] was above 7.70; in assay [2], 5.30 to 6.70; in assay [3] it was 5.30 to 6.70; in assay [4] (Homo sapiens, A673, 72 h), 6.70 to 7.70; in assay [5] (setting [7]) it was 6.00 to 7.00; in assay [6], 5.30 to 6.70.
On to `N#C[C@@H]1CCN(C(=O)c2ccc3c(-c4nc(N[C@H]5CCCNC5)ncc4C(F)(F)F)c[nH]c3c2)C1` [Compound 292, (3R)-1-[3-[2-[[(3S)-3-piperidyl]amino]-5-(trifluoromethyl)pyrimidin-4-yl]-1H-indole-6-carbonyl] pyrrolidine-3-carbonitrile], for which the pIC50 in assay [1] was above 7.70; in assay [1] (listed as 107), 6.70 to 7.70; in assay [2], 5.30 to 6.70; in assay [2] (listed as 107), 5.30 to 6.70; in assay [3] it was 5.30 to 6.70; in assay [3] (listed as 107) it was 5.30 to 6.70. Moreover, the pIC50 is above 7.70 in assay [4] (listed as 107); 6.70 to 7.70 in assay [4] (Homo sapiens, A673, 72 h); 6.00 to 7.00 in assay [5] (setting [7]); 5.30 to 6.70 in assay [6]; 6.70 to 7.70 in assay [6] (listed as 107).
`N#C[C@H]1CCN(C(=O)c2ccc3c(-c4nc(N[C@H]5CCCNC5)ncc4C(F)(F)F)c[nH]c3c2)C1` [Compound 293, (3S)-1-[3-[2-[[(3S)-3-piperidyl]amino]-5-(trifluoromethyl)pyrimidin-4-yl]-1H-indole-6-carbonyl] pyrrolidine-3-carbonitrile]: the pIC50 was above 7.70 in assay [1]; 6.70 to 7.70 in assay [1] (listed as 108); 5.30 to 6.70 in assay [2]; 5.30 to 6.70 in assay [2] (listed as 108); 5.30 to 6.70 in assay [3]; 5.30 to 6.70 in assay [3] (listed as 108). Further, the pIC50 in assay [4] was 5.30 to 6.70; in assay [5] (setting [7]), 6.00 to 7.00; in assay [6], 5.30 to 6.70; in assay [6] (listed as 108), 5.30 to 6.70.
For `CS(=O)(=O)c1c(C#N)ccc2c(-c3nc(N[C@H]4CCCNC4)ncc3Cl)c[nH]c12` [Compound 294, 3-[5-chloro-2-[[(3S)-3-piperidyl]amino]pyrimidin-4-yl]-7-methylsulfonyl-1H-indole-6-carbonitrile], the pIC50 is above 7.70 in assay [1]; above 7.70 in assay [1] (listed as 109); 5.30 to 6.70 in assay [2]; 5.30 to 6.70 in assay [2] (listed as 109); 5.30 to 6.70 in assay [3]; 5.30 to 6.70 in assay [3] (listed as 109). The pIC50 in assay [4] is 6.70 to 7.70; in assay [5] (setting [7]) it was above 7.00; in assay [5] (listed as 109, read-out: Inhibition of Proliferation of HCC70 Cells (calculated IC50)) it was 6.00 to 7.00; in assay [6] it was 5.30 to 6.70; in assay [6] (listed as 109) it was 6.70 to 7.70.

Source of the values: patent US20240360165A1, “INHIBITORS OF CYCLIN DEPENDENT KINASE 7 (CDK7)” (Syros Pharmaceuticals, Inc., priority 2016, published 2024).
